Data on eight compounds can be found in US10118947B2, “Modulation of structured polypeptide specificity” (BICYCLE THERAPEUTICS LIMITED, priority 2013, dated 2018).

Read-outs that look alike come from different tables or passages of the source. Numbered stars: 1 amine (or outer) side, 2 acyl side, 3 side chain; on linkers, the order of the positions; unused ones are H or OH. Bridge positions count the residues as written; N and C are the ends. Square brackets hold non-standard residues; d marks the D form. Peptide text beside a SMILES is read from it. Phe(4-guanidino) = N=C(N)Nc1ccc(C[C@H](N)C(=O)O)cc1; TBMB = c1c(C[*:1])cc(C[*:3])cc1C[*:2]; Tle = CC(C)(C)[C@H](N)C(=O)O; Aze = O=C(O)[C@@H]1CCN1

Data set [1] is described as follows: Plasma stability profiling Method #1 (MALDI-TOF, 35% plasma), rat plasma. Type of data set: in vitro ADME. The settings on record: for observability window / rat plasma stability profile: method #1. The method in brief: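 Qualitative test: 200 µM peptide incubated at 37 °C in 35% rat or human citrated plasma supplemented with PBS, sampled at 0, 3, 24 h then daily up to 10 days. Parent mass tracked by MALDI-TOF; value is time until parent peptide no longer detectable.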

Data set [2] in a line: Quantitative plasma stability Method #3 (LC-MS, 95% plasma), rat plasma. Format: in vitro ADME. The settings on record: method #3; for half-life at 5 uM: rat, plasma. How it is done: To obtain plasma stability quantitatively, peptide stock solutions (1 mM in DMSO) were shipped to Biofocus, UK, who performed the analysis. Peptides were diluted to 100 uM with water, and diluted 1:20 in plasma (5 uM final concentration, with the plasma at 95%), sampled as appropriate, precipitated as above, and quantified using a Waters Xevo TQ-MS.

Data set [3] has as its target T1, rat plasma Kallikrein (Rattus norvegicus, UniProt P14272).
T1 construct: polyhistidine tag (N, cleaved yes); proTEV cleavage site (pro-peptide linker) (N, cleaved yes); made in house; host or cells: HEK-293 (suspension-adapted)

The conditions of data set [4]: Table 1; Method #3; cited from earlier work.
A further data set addresses T2, human plasma Kallikrein (Homo sapiens, UniProt P03952).
T2 construct: purchased Stratech, UK
Nature of the data set: Functional enzyme inhibition assay with fluorogenic substrate Z-PheArg-AMC, human plasma Kallikrein. Type of data set: biochemical. The method in brief:
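Rates of AMC release (excitation 360 nm, emission 460 nm) from 100 μM final Z-PheArg-AMC, 4% DMSO, were taken over the linear phase, typically 5 to 45 minutes. IC50 from four-parameter non-linear regression; Ki also derived.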

For data set [5], the target named is T1, rat plasma Kallikrein. As to the kind of experiment: Functional enzyme inhibition assay with fluorogenic substrate Z-PheArg-AMC, rat plasma Kallikrein. The conditions noted are these: Table 26a, loop2 stability enhanced candidates. Format: biochemical. As to the method: Functional enzyme assays were conducted in 10 mM Tris HCl, 150 mM NaCl, 10 mM MgCl2, 1 mM CaCl2) and 1 mg/mL BSA (all Sigma UK) pH7.4 at 25° C. in solid black 96 well plates. Briefly 26.5 pM human plasma Kallikrein (purchased from Stratech, UK) or 500 pM rat plasma Kallikrein (expressed and purified in house) were incubated in the absence or presence of increasing concentrations of test peptide for 15 minutes before addition of the fluorogenic substrate Z-PheArg-AMC (Enzo Lifesciences UK) to a final assay concentration of 100 μM in 4% DMSO. Release of AMC was measured using a Pherastar FS (BMG Labtech), excitation 360 nm, emission 460 nm. The rate of the linear phase of the reaction, typically 5 to 45 minutes, was calculated in MARS data analysis software (BMG labtech). The rate was then used to calculate the IC50 and Ki in Prism (GraphPad). A four parameter inhibition non-linear regression equation was used to calculate the IC50.
Peptides were dissolved as the TFA-salts in their powder form, and stock solutions were usually prepared in water. All solutions were centrifuged and filtered ([…] syringe filters) prior absorption measurement at 280 nm. Extinction coefficients were calculated based on the Trp/Tyr content of the peptide, and that of TMB (the TMB core, when contained in a peptide, has an ε of ˜300 M^−1cm^−1). For peptides containing non-natural amino acids with suspected chromophoric properties (i.e. NorHar, 4PhenylPro, 3Pal, 4Pal, Tic, 4GuanPhe, 4,4-BPAI, 3,3-DPA, 1NAI, 2NAI, 4BenzylPro, Ind) concentrations were determined by weighing the powder and dissolving the peptide in a defined quantity of water.

Data set [6] in a line: Plasma stability / fragment profiling Method #2 (MALDI-TOF, 95% plasma), human plasma. Type of data set: in vitro ADME. The settings on record: for degradation / fragments in human plasma (in words): running text and figure legends. The method in brief:
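Peptide at 50 uM final in 95% human plasma without PBS; timed samples frozen at −80 °C, then extracted with 1:1 acetonitrile:methanol. Supernatant mixed with 30 mM ammonium bicarbonate and analysed by MALDI-TOF; qualitative fragment profiling of relative stability over time.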

The conditions of data set [7]: Table 1; Method #1; cited from earlier work.
The nature of data set [8]: Intravenous pharmacokinetics in Sprague Dawley rats. The conditions noted are these: rat. Type of data set: in vivo. How it is done: Peptides were applied as intravenous boli in PBS-buffered solution at 1.02 mg/mL (containing 2.9% DMSO) at 5.2 mg/kg to Sprague Dawley rats, and serial blood samples were taken from each animal via temporary indwelling tall vein cannulae at 5, 10, 20, 30, 60, 120, and 240 minutes post dose, and transferred to EDTA tubes for plasma generation. Data was acquired for peptide “all D Ac-06-34-18” from 3 rats, for “Ac-(06-34-18) Phe2 Aze3 Tyr4 HArg5 Ala(ψCH2NH)6” from two rats, and for “Ac-(06-34-18) Phe2 Aze3 Tyr4 HArg5 D-Asp9” from two rats.
Plasma samples were then treated with 3 volumes of a 1:1 mixture of acetonitrile and methanol, precipitated proteins were removed by centrifugation, and the supernatant was analysed by UPLC-MS/MS.
Quantification for peptide content in the samples was by reference to a calibration line prepared in control rat plasma. Pharmacokinetic parameters were determined by non-compartmental analysis using the software package PK Solutions 2.0 from Summit Research Services.

The mark [9] stands for this setting: read-out: half-life in rat plasma (t1/2) (converted).
Setting [10] is: Table 1; read-out: Ki (nM) (rat kallikrein); cited from earlier work.

Usually Kd stands for the constant that tells how readily two partners part at equilibrium. A low value points to tighter binding.

T2 sequence (P03952 20-638): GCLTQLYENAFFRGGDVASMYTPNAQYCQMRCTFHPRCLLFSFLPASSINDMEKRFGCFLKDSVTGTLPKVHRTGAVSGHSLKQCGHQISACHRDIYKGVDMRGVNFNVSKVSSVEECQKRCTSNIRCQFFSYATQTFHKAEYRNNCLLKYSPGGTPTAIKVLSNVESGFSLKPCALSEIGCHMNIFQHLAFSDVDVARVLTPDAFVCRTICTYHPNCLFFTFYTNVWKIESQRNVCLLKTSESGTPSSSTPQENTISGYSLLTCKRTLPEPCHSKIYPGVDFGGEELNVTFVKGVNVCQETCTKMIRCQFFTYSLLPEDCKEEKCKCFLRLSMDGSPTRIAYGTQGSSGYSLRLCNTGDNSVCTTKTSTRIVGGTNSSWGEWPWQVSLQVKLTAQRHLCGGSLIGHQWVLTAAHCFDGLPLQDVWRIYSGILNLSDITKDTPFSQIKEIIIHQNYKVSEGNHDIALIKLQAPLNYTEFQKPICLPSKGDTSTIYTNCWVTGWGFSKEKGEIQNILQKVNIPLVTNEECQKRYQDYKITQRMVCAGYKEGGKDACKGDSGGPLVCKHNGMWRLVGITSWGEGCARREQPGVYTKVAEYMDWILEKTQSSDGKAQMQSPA
T1 sequence (P14272 391-638 limits assumed): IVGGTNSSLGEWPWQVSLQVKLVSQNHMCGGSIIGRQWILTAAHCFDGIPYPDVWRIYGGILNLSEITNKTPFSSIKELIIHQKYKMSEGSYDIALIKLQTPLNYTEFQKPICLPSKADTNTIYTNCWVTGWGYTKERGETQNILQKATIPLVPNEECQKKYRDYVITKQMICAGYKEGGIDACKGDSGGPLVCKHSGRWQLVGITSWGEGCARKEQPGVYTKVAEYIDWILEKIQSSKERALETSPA

For `CC(=O)N[C@H]1CSCc2cc3cc(c2)CSC[C@H](NC(=O)[C@H](CCCNC(=N)N)NC(=O)[C@H](C)NC(=O)[C@@H]2CCCN2C(=O)[C@H](Cc2c[nH]c4ccccc24)NC(=O)[C@H](CO)NC1=O)C(=O)N[C@@H](CC(C)C)C(=O)N[C@@H](Cc1c[nH]cn1)C(=O)N[C@@H](CCC(N)=O)C(=O)N[C@@H](CC(=O)O)C(=O)N[C@@H](CC(C)C)C(=O)N[C@H](C(N)=O)CSC3` [Ac-(06-34-18) wildtype], in [1], the “observability window / rat plasma stability profile” value was “about 2 days”. The “t1/2 (hrs) in rat plasma” value in [2] (Table 15) and in [4] was 2.3 h each time. The half-life at 5 uM in data set [2] (setting [9]) was 2.3 h. Further, the Ki on rat plasma Kallikrein [3] (read-out: Ki (nM) (rat kallikrein); Table 1; cited from earlier work) is 1.8 nM.

With `CC(=O)N[C@H]1CSCc2cc3cc(c2)CSC[C@H](NC(=O)[C@H](CCCNC(=N)N)N(C)C(=O)[C@H](C)NC(=O)[C@@H]2CCCN2C(=O)[C@H](Cc2c[nH]c4ccccc24)NC(=O)[C@H](CO)NC1=O)C(=O)N[C@@H](CC(C)C)C(=O)N[C@@H](Cc1c[nH]cn1)C(=O)N[C@@H](CCC(N)=O)C(=O)N[C@@H](CC(=O)O)C(=O)N[C@@H](CC(C)C)C(=O)N[C@H](C(N)=O)CSC3` [Ac-(06-34-18) NMeArg5], the “reduction in potency/affinity compared to wildtype” value at human plasma Kallikrein is given as 20 fold. Further, the “observability window / rat plasma stability profile” value in data set [1] is “exceeds the assay time”. Further, the “t1/2 (hrs) in rat plasma” value in data set [2] (Table 15) and in data set [4] was greater than 20 h in each case. In data set [2] (setting [9]), the half-life at 5 uM is greater than 20 h. For the same compound, the Ki at rat plasma Kallikrein [3] (setting [10]) was 120 nM.

In the case of `CC(=O)N[C@H]1CSCc2cc3cc(c2)CSC[C@H](NC(=O)[C@H](CCCCNC(=N)N)NC(=O)[C@H](C)NC(=O)[C@@H]2CCCN2C(=O)[C@H](Cc2c[nH]c4ccccc24)NC(=O)[C@H](CO)NC1=O)C(=O)N[C@@H](CC(C)C)C(=O)N[C@@H](Cc1c[nH]cn1)C(=O)N[C@@H](CCC(N)=O)C(=O)N[C@@H](CC(=O)O)C(=O)N[C@@H](CC(C)C)C(=O)N[C@H](C(N)=O)CSC3` [Ac-(06-34-18) HomoArg5], the half-life at 5 uM in data set [2] (Table 15, read-out: t1/2 (hrs) in rat plasma (converted)) was 10.7 h. Besides, on rat plasma Kallikrein [3] (setting [10]), the Ki is 101 nM. Also, in data set [4], the “t1/2 (hrs) in rat plasma” value was 10.7 h.

As to `CC(=O)N[C@H]1CSCc2cc3cc(c2)CSC[C@H](NC(=O)[C@H](CCCNC(=N)N)NC(=O)[C@H](Cc2ccc(O)cc2)NC(=O)[C@@H]2CCCN2C(=O)[C@H](Cc2ccccc2)NC(=O)[C@H](CO)NC1=O)C(=O)N[C@@H](C)CN[C@@H](Cc1c[nH]cn1)C(=O)N[C@@H](CCC(N)=O)C(=O)N[C@@H](CC(=O)O)C(=O)N[C@@H](CC(C)C)C(=O)N[C@H](C(N)=O)CSC3` [Ac-(06-34-18) Phe2 Tyr4 Ala(ψCH2NH)6], the dissociation constant (Kd) at human plasma Kallikrein stood at 1.5 nM. On human plasma Kallikrein (Table 25b, fold change of Ki of variant compared to WT), the “F (Kivar/KiWT)” value stood at 4. Moreover, the Ki at human plasma Kallikrein (Table 25b, peptide backbone modifications in Loop2, human plasma kallikrein, read-out: Ki) was 1.47 nM; on rat plasma Kallikrein [5], 43.6 nM. In data set [6], the “degradation / fragments in human plasma (in words)” value was “significantly enhanced stability in loop2”.

With `CC(=O)N[C@H]1CSCc2cc3cc(c2)CSC[C@H](NC(=O)[C@H](Cc2ccc(NC(=N)N)cc2)NC(=O)[C@H](C)NC(=O)[C@@H]2CCN2C(=O)[C@H](Cc2c[nH]c4ccccc24)NC(=O)[C@H](CO)NC1=O)C(=O)N[C@@H](CC(C)C)C(=O)N[C@@H](Cc1c[nH]cn1)C(=O)N[C@@H](CCC(N)=O)C(=O)N[C@@H](CC(=O)O)C(=O)N[C@@H](CC(C)C)C(=O)N[C@H](C(N)=O)CSC3` [Ac-(06-34-18) Aze3 4GuanPhe5] (Ac-CSW[Aze]A[Phe(4-guanidino)]CLHQDLC-NH2; linker 1-7-13 via TBMB), the “Observable in rat plasma, for days” value was greater than 10 days in [1] (Table 15, comparative stabilities estimated according to method #1) and greater than 10 days in [7].

With `CC(=O)N[C@H]1CSCc2cc3cc(c2)CSC[C@H](NC(=O)[C@H](CCCNC(=N)N)NC(=O)[C@H](Cc2ccc(O)cc2)NC(=O)[C@@H]2CCCN2C(=O)[C@H](Cc2ccccc2)NC(=O)[C@H](CO)NC1=O)C(=O)N[C@@H](C(C)(C)C)C(=O)N[C@@H](Cc1c[nH]cn1)C(=O)N[C@@H](CCC(N)=O)C(=O)N[C@@H](CC(=O)O)C(=O)N[C@@H](CC(C)C)C(=O)N[C@H](C(N)=O)CSC3` [Ac-(06-34-18) Phe2 Tyr4 tBuGly6] (Ac-CSFPYRC[Tle]HQDLC-NH2; linker 1-7-13 via TBMB), the Ki on human plasma Kallikrein (Table 24a, residue 6 modification in the context of Ac-(06-34-18) Phe2 Tyr4, read-out: Ki (nM) Ac-(06-34-18) Phe2 Tyr4) was determined as 3.76 nM; on rat plasma Kallikrein [5], 218 nM. Also, the “degradation / fragments in human plasma (in words)” value in data set [6] was “only removal of Arg5 in the first loop”.

Consider `CC(=O)N[C@@H]1CSCc2cc3cc(c2)CSC[C@@H](NC(=O)[C@@H](CCCNC(=N)N)NC(=O)[C@@H](C)NC(=O)[C@H]2CCCN2C(=O)[C@@H](Cc2c[nH]c4ccccc24)NC(=O)[C@@H](CO)NC1=O)C(=O)N[C@H](CC(C)C)C(=O)N[C@H](Cc1c[nH]cn1)C(=O)N[C@H](CCC(N)=O)C(=O)N[C@H](CC(=O)O)C(=O)N[C@H](CC(C)C)C(=O)N[C@@H](C(N)=O)CSC3` [All D 06-34-18, Ac-cswparclhqdlc-NH2(TMB), reference compound], for which, at human plasma Kallikrein, the “potency / binding to kallikrein (in words)” value is recorded as “lacks any potency”. Also, the half-life in data set [8] (Sprague Dawley, in vivo, intravenous bolus 5.2 mg/kg, read-out: elimination half-life) turned out to be 0.9 h. For the same compound, in [8] (intravenous), the “Clearance based on AUC0-∞” value stood at 4.5 mL/min/kg and the “Volume of distribution based on AUC0-∞” value is 0.3 L/kg.

Consider `CC(=O)N[C@H]1CSCc2cc3cc(c2)CSC[C@H](NC(=O)[C@H](CCCNC(=N)N)NC(=O)[C@H](Cc2ccc(O)cc2)NC(=O)[C@@H]2CCCN2C(=O)[C@H](Cc2ccccc2)NC(=O)[C@H](CO)NC1=O)C(=O)N[C@@H](CC(C)C)C(=O)N[C@@H](Cc1c[nH]cn1)C(=O)N[C@@H](CCC(N)=O)C(=O)N[C@H](CC(=O)O)C(=O)N[C@@H](CC(C)C)C(=O)N[C@H](C(N)=O)CSC3` [Ac-(06-34-18) Phe2 Tyr4 D-Asp9] (Ac-CSFPYRCLHQ[dD]LC-NH2; linker 1-7-13 via TBMB), for which the “reduction in potency/affinity compared to wildtype” value at human plasma Kallikrein is on record as 9 fold. The Ki at human plasma Kallikrein (Table 3b, D-amino acid scan in Loop2, read-out: Ki) was found to be 3.89 nM; at human plasma Kallikrein (read-out: Ki / affinity to human Kallikrein), 4 nM; at rat plasma Kallikrein [5], 32 nM. Besides, the “F (Kivar/KiWT)” value at human plasma Kallikrein (Table 3b, ratio of Ki to wild type) turned out to be 9. For the same compound, the “Fragments (human plasma)” value in data set [6] (Table 3b, peptide fragments observed after incubation in human plasma) is given as “-R, -FPYR”.
